According to patent US5821353A, “DNA encoding 1,3 beta-D glucan synthase subunits” (Merck & Co., Inc., priority 1996, dated 1998):

How the values were obtained:
Type in all cases: cell-based, Saccharomyces cerevisiae
[1] = test system: S. cerevisiae R560-1 / R560-1C (fks1-2); test: liquid MIC assay of resistant clone
Method: Strain W303-1A was transformed by the spheroplast method (MYG) with yeast genomic libraries obtained from D. Botstein (1982. Cell, 28:145-154). Transformants selected on uracil dropout medium were pooled and stored at -80° C. in 20% glycerol. After determining the titer (colony forming units(CFU)/ml), aliquots of the stocks were spread at .congruent.5×10^3 CFU per plate onto uracil dropout medium containing the semisynthetic echinocandin L-733,560 at 0.5 mcg/ml or 1.25 mcg/ml. This concentration of L-733,560 is sufficient to select for resistant clones. Twenty-seven drug resistant colonies were isolated. […] Briefly, L-733,560 was serially diluted across the wells of a sterile microtiter plate such that the concentration in each row ranged from 16 to 0.03 mcg/ml in 2-fold increments after an equal volume of a cell suspension in liquid uracil dropout medium was added. After 24 h at 30° C., plates were read in a spectrophotometer at a wavelength of 600 nm, and the percent of control growth in each well (relative to a no-drug control well) was calculated. […]
Because this strain was isolated as a transfornant from the genomic library, it was expected that resistance would be due to the gene residing on the plasmid contained in R560-1. […] R560-1C was mated to the wild type strain W303-1B, sporulated, dissected, and the sensitivity to L-733,560 quantitated by liquid MIC assay. […]

S. cerevisiae X2180-1A = test: MIC, growth inhibition; conditions: minimum concentration required to inhibit growth
Method: (§1) Liquid broth microdilution assay
(§2) To quantitate the sensitivity of a particular strain of S. cerevisiae to a compound such as FK506, L-733,560, or nikkomycin Z, the following procedure was followed:
(§3) Dissolve drug of interest at 4× the desired initial concentration. For L-733,560, a 64 mcg/ml solution in sterile SD is prepared. Aliquot 75 mcL of the drug suspension into column 3. Using a multichannel pipettor, transfer 75 mcL from column 3 into column 4, pipet up and down three times to mix, and then transfer 75 mcL from column 4 into column 5. Repeat the serial dilution until column 12 is reached; after mixing, discard 75 mcL to waste.
(§4) Inoculate each strain in a given row by adding 75 mcL of the inoculum into columns 2 to 12. […] Column 2 serves as the no-drug or 100% growth control. The plate is then incubated overnight at 30° C. without shaking.
(§5) After approximately 24 hours of incubation, gently agitate the plate to resuspend the cells and read the absorbance at 600 nm wavelength. The % control growth for any given well can be calculated by dividing the absorbance value for that well by the value from column 2 in the same row. If this is done for each column, the data can be plotted as "Percent control growth" vs. "Drug concentration". The resulting dose-response curve can be used to compare the drug sensitivities of various strains.
(§6) The data in the following table are the minimum concentration of the various drugs required to inhibit the growth of each the mutants and their parent X2180-1A.

S. cerevisiae MY2145 = test: MIC, growth inhibition; conditions: MY2145
Method: as §1, §2, §3, §4, §5, §6

[2] = test system: S. cerevisiae MY2144 (fks 1-3); test: MIC, growth inhibition; conditions: MY2144 (fks 1-3)
Method: as §1, §2, §3, §4, §5, §6

[3] = test system: S. cerevisiae FKS1 pcr1 (fks2-1): MY2257, MY2258; test: MIC assay; conditions: less than 10% growth, 42 hours
Method: (§7) The sensitivities of pcr1(fks2-1) fks1-1 and pcr1(fks2-1) FKS1 strains to L-733,560, L-636,947 (Aculeacin), and L-687,781 (Dihydropapulocandin) were determined in MIC assays. Briefly, strains were grown to stationary phase in 5.0 ml of liquid YPAD medium. MY2256 precultures were grown in liquid YPAD10Ca. MIC assays were performed in flat well microtiter plates in triplicate. Each well of the microtiter plate was filled with 100 mcL of YPAD medium. To the first well, 100 mcL of a 4× solution of drug in YPAD medium was added. To serve as a control, a stock solution of […] of YPAD was made. 100 mcL of this solution was added to the initial well for strains grown in the presence of solvent but the absence of drug. Two-fold serial dilutions of the drug were performed down the plate.
(§8) Cultures were diluted to 5×10^5 cells/ml in YPAD (1 OD660 =3.3×10^7 cells/ml). 100 mcL of diluted culture was added to each well, resuspended, and incubated at 28° C. After 42 hours, cultures were resuspended and cells densities measured in an SLT Laboratories 340 ATTC microtiter plate reader. The MICs concentrations presented in the table below represent the concentrations of drug that result in less than 10% growth of the strain grown in the absence of drug.

[4] = test system: S. cerevisiae wild type YFK0005; test: MIC assay; conditions: less than 10% growth of no-drug control, 42 hours, 28° C.
Method: as §7, §8

[5] = test system: S. cerevisiae fks1-1 pcr1 (fks2-1): MY2256, YFK0996-11B, MY2259, MY2260; test: MIC assay; conditions: less than 10% growth, 42 hours
Method: as §7, §8

[6] = test system: S. cerevisiae fks1-1 PCR1 YFK0688-14B; test: MIC assay; conditions: less than 10% growth of no-drug control, 42 hours, 28° C.
Method: as §7, §8

dihydropapulacandin [L-687,781]
resistance phenotype in liquid MIC assay [1]: resistance phenotype | MIC (S. cerevisiae X2180-1A): 5.5 mg/L | MIC (S. cerevisiae MY2145): 5.5 mg/L | MIC [2]: 15 mg/L | MIC [3]: > 40 mg/L | MIC [4]: 40 mg/L | MIC [5]: > 40 mg/L | MIC [6]: 10 mg/L
